In ChEMBL document CHEMBL1201862, “PubChem BioAssay data set” (2004):
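Interpolation was linear, between the two tested concentrations surrounding the appropriate level; five concentrations were tested over 48 hours in 96-well plates. GI50 = concentration required for 50% inhibition of growth.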 Calls of active or inactive are those of the source. No stated cut-off is given here; in the data, active = GI50 up to about 1.1 µM and inactive = higher.

How the values were obtained:
Experiment in all cases: NCI-60 cell line screen, 48 h
CCRF-CEM = test system: CCRF-CEM
KM12 = test system: KM12
SK-MEL-2 = test system: SK-MEL-2
SF-295 = test system: SF-295
SW-620 = test system: SW-620
SN12C = test system: SN12C
786-0 = test system: 786-0
UACC-257 = test system: UACC-257
A549 = test system: A549
SNB-75 = test system: SNB-75
OVCAR-8 = test system: OVCAR-8
TK-10 = test system: TK-10
SF-539 = test system: SF-539
MOLT-4 = test system: MOLT-4
MDA-MB-231 = test system: MDA-MB-231
DU-145 = test system: DU-145
RPMI-8226 = test system: RPMI-8226
HOP-62 = test system: HOP-62
SNB-19 = test system: SNB-19
MDA-MB-435 = test system: MDA-MB-435
SF-268 = test system: SF-268
U-251 = test system: U-251
SK-MEL-5 = test system: SK-MEL-5
SR = test system: SR
Hs-578T = test system: Hs-578T
K562 = test system: K562
HCT-116 = test system: HCT-116
A498 = test system: A498
MDA-N = test system: MDA-N
UACC-62 = test system: UACC-62
MCF7 = test system: MCF7
EKVX = test system: EKVX
OVCAR-3 = test system: OVCAR-3
HT-29 = test system: HT-29
NCI/ADR-RES = test system: NCI/ADR-RES
NCI-H226 = test system: NCI-H226
CAKI-1 = test system: CAKI-1
UO-31 = test system: UO-31
COLO 205 = test system: COLO 205
PC-3 = test system: PC-3
RXF 393 = test system: RXF 393
M14 = test system: M14
IGROV-1 = test system: IGROV-1
HL-60 = test system: HL-60
SK-MEL-28 = test system: SK-MEL-28
NCI-H23 = test system: NCI-H23
OVCAR-5 = test system: OVCAR-5
ACHN = test system: ACHN
T47D = test system: T47D
BT-549 = test system: BT-549
HCT-15 = test system: HCT-15
NCI-H460 = test system: NCI-H460

Measured: GI50

Nc1nncc2[nH]nnc12
active: K562 0.186 µM
inactive: CCRF-CEM 11 µM | KM12 > 100 µM | SK-MEL-2 > 100 µM | SF-295 > 100 µM | SW-620 83.6 µM | SN12C > 100 µM | 786-0 > 100 µM | UACC-257 > 100 µM | A549 > 100 µM | SNB-75 > 100 µM | OVCAR-8 > 100 µM | TK-10 > 100 µM | SF-539 > 100 µM | MOLT-4 17.4 µM | MDA-MB-231 > 100 µM | DU-145 > 100 µM | RPMI-8226 > 100 µM | HOP-62 > 100 µM | SNB-19 > 100 µM | MDA-MB-435 > 100 µM | SF-268 > 100 µM | U-251 > 100 µM | SK-MEL-5 16.5 µM | SR 22.9 µM | Hs-578T > 100 µM | HCT-116 > 100 µM | A498 > 100 µM | MDA-N > 100 µM | UACC-62 > 100 µM | MCF7 > 100 µM | EKVX > 100 µM | OVCAR-3 > 100 µM | HT-29 > 100 µM | NCI/ADR-RES > 100 µM | NCI-H226 > 100 µM | CAKI-1 > 100 µM | UO-31 > 100 µM | COLO 205 > 100 µM | PC-3 > 100 µM | RXF 393 > 100 µM | M14 > 100 µM | IGROV-1 > 100 µM | HL-60 12.8 µM | SK-MEL-28 > 100 µM | NCI-H23 > 100 µM | OVCAR-5 > 100 µM | ACHN > 100 µM | T47D > 100 µM | BT-549 > 100 µM | NCI-H460 > 100 µM
> 100 µM: HCT-15
